From PubChem BioAssay (NCI)
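48-hour exposure; five concentrations; linearly interpolated endpoints. TGI denotes the concentration required for complete inhibition of growth.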 Where a SMILES comes first, the peptide text is derived from it. The star is where a group is joined. Boc = CC(C)(C)OC(=O)*; OBn = c1ccc(CO*)cc1; Bn = c1ccc(C*)cc1

Tests used:
Assay in all cases: NCI anticancer screen, dose series, 48 h
NCI-H226 lung = tested on: NCI-H226 lung
HL-60(TB) leukemia = tested on: HL-60(TB) leukemia
MCF7 breast = tested on: MCF7 breast
UACC-62 melanoma = tested on: UACC-62 melanoma
HS 578T breast = tested on: HS 578T breast
A549 NSCLC = tested on: A549 NSCLC
MDA-N = tested on: MDA-N
SK-MEL-28 melanoma = tested on: SK-MEL-28 melanoma
UO-31 renal = tested on: UO-31 renal
XF 498 CNS = tested on: XF 498 CNS

Row | Structure (SMILES) | TGI (NCI-H226 lung) | TGI (HL-60(TB) leukemia) | TGI (MCF7 breast) | TGI (UACC-62 melanoma) | TGI (HS 578T breast) | TGI (A549 NSCLC) | TGI (MDA-N) | TGI (SK-MEL-28 melanoma) | TGI (UO-31 renal) | TGI (XF 498 CNS)
1 | Cc1cc([C@H](C#N)c2nc3ccccc3s2)nc(Cl)n1 | 35.1 µM | > 100 µM | > 100 µM | 20.5 µM | 33.3 µM | > 100 µM | > 100 µM | 39.1 µM | 21.3 µM | 
2 | CCOC(=O)Cn1c(=O)c2cc(C)cc3c(Cl)nc4c(OC)c(OC)cc1c4c32 | > 100 µM | > 100 µM | > 100 µM | > 100 µM | 74.7 µM | > 100 µM | > 100 µM | > 100 µM | > 100 µM | 
3 | COC(=O)/C=C1\C(=O)N(C(C)=O)c2ccccc21 | 27.8 µM | 5.61 µM | 28.2 µM | 18.4 µM | 25.8 µM | > 57.6 µM | 25.2 µM | 32.7 µM | 26.4 µM | 
4 | CCOC(=O)n1c2ccccc2c2c(O)c(OC)c3c(c21)C(=O)NC3=O | 76.3 µM | 49.2 µM | > 100 µM | > 100 µM | > 100 µM | > 100 µM | > 100 µM | > 100 µM | > 100 µM | 
5 | CC(C)CC(NC(=O)C(CCC(=O)OCc1ccccc1)NC(=O)OC(C)(C)C)C(=O)NC(COCc1ccccc1)C(=O)NC(Cc1ccccc1)C(=O)O (stereo not drawn) (Boc-E(OBn)LS(Bn)F-OH; configuration not given here) | > 100 µM | > 100 µM | > 100 µM | > 100 µM | > 100 µM | > 100 µM | > 100 µM | > 100 µM | > 100 µM | 
6 | Cc1cc(C)c2c(=O)n(CC(O)CN3CCN(c4ncccn4)CC3)sc2n1 (stereo not drawn) | > 100 µM | 38.9 µM | 31.8 µM | 31.6 µM | 42.8 µM | 31.2 µM | 29.5 µM | 36.6 µM | 30 µM | 
7 | NC1=CN2c3ccccc3N(CC(=O)N3CCOCC3)C2C=C1 (stereo not drawn) | > 100 µM | > 100 µM | > 100 µM | > 100 µM | > 100 µM | > 100 µM | > 100 µM | > 100 µM | > 100 µM | 
8 | COc1ccc(NC(=O)c2cc(NC(=O)/C=C/c3ccccc3)c(OC)c(OC)c2)cc1 | > 100 µM | 45.4 µM | > 100 µM | > 100 µM | > 100 µM | > 100 µM | 16.5 µM | > 100 µM | 5.62 µM | 
9 | CC1(C)OC2C(CO)OC(/N=C(\NC#N)Oc3ccccc3)C2O1 (stereo not drawn) | > 100 µM | > 100 µM |  | > 100 µM |  | > 100 µM |  | > 100 µM | > 100 µM | > 100 µM
10 | O=c1[nH]nc(Nc2ccccc2)c2nnn(Cc3ccccc3)c12 | > 100 µM | > 100 µM | > 100 µM | > 100 µM | 90.4 µM | > 100 µM | > 100 µM | > 100 µM | > 100 µM | 
11 | Nc1c2c(nc3ccccc13)-c1ccccc1CCC2 | 28.9 µM | 26.4 µM | 28.6 µM | 22.7 µM | 43.2 µM | 29.9 µM | 25.9 µM | 27.3 µM | 22.3 µM | 
12 | Nc1nc(-c2ccccc2)cc(-c2ccc(F)cc2)c1-c1ccc(Cl)cc1 | > 100 µM | > 100 µM | > 100 µM | > 100 µM | > 100 µM | > 100 µM | > 100 µM | > 100 µM | > 100 µM | 
13 | CSCC[C@@H](NC(=O)[C@H](CC(C)C)NC(=O)C(Cc1cnc[nH]1)NC(=O)CNC(=O)[C@@H](NC(=O)[C@H](C)NC(=O)[C@H](Cc1cn(C=O)c2ccccc12)NC(=O)[C@H](CCC(N)=O)NC(=O)[C@@H](N)CC(N)=O)C(C)C)C(N)=O (stereo partly drawn) | > 100 µM | > 100 µM | > 100 µM | > 100 µM |  | > 100 µM |  | > 100 µM | > 100 µM | > 100 µM
14 | CCCCc1ccc(Nc2nc(N)c3[nH]cnc3n2)cc1 | 53.2 µM | 42.5 µM | 42.4 µM | 35.3 µM | 41.6 µM | 79.4 µM | 32.6 µM | 44.1 µM | 27.1 µM | 
15 | O=C(NCCc1ccc(F)cc1)c1cc(/C=C/c2cc(O)ccc2O)ccc1O | 29.5 µM | 15.4 µM | 10.1 µM | 4.85 µM | > 100 µM | > 100 µM | 9.59 µM | > 25.3 µM | 3.07 µM | 
16 | C/C(=N\NC(=S)N/N=C(\C)c1ccccn1)c1ccccn1 | 3.78 µM | > 100 µM | > 100 µM | 15 µM | > 100 µM | > 100 µM | > 100 µM | > 100 µM | 5.31 µM | 
17 | CC12CCC3=C(CSC4=C3CSc3ccccc34)C1=CCCC2=O (stereo not drawn) | > 100 µM | > 100 µM |  |  |  | > 100 µM |  | > 100 µM | > 100 µM | 87.3 µM
18 | COc1c2c(cc3oc(=O)ccc13)OC(C)(C)C=C2 | > 125 µM | 45.2 µM | 57.8 µM | 42.2 µM | > 125 µM | > 125 µM | 91.7 µM | 75.9 µM | 73.6 µM | 
19 | CN(CCN(C)Cc1ccc(Cl)c(Cl)c1)CCN1CCCC1 | 94.9 µM | > 100 µM | > 85.1 µM | 7.47 µM | > 45 µM | > 100 µM | 31.4 µM | 20.3 µM | 36 µM | 
20 | O=C(OCc1ccccc1[N+](=O)[O-])N1c2ccccc2[C@@]23O[C@]24CCC[C@H]3C#C/C=C\C#C[C@H]14 | > 100 µM | 25.9 µM | > 100 µM | > 100 µM | > 100 µM | > 100 µM | > 100 µM | > 100 µM | > 100 µM | 
21 | CO/C=C(/C(=O)OC)c1ccccc1[C@H]1C[C@@H]1c1ccc(OC)cc1 | > 100 µM | 62.4 µM | > 100 µM | 64.7 µM | 84.5 µM | 65.6 µM | 56.7 µM | 52.2 µM | > 100 µM | 
